Laboratory results reported in patent publication US20110144000A1, “ANTIMICROBIAL POLYPEPTIDE” (priority 2007, published 2011).

Legend:
[1] = system: Escherichia coli (strain 37.4); experiment: Viable count bactericidal assay; type: cell-based; conditions: for antibacterial activity compared with GCP-2/CXCL6 holopeptide: fragment comparison, FIG. 1b
Source text: (§1) The GAS strain AP1 (40/58) of M1 serotype was from the World Health Organization Collaborating Centre for Reference and Research on Streptococci, Prague, Czech Republic. Streptococcus pyogenes (strain AP1) and Streptococcus Dysgalactiae, sub species equisimilis (strain G41), Staphylococcus aureus (strain 5120), Pseudomonas aeruginosa (strain 1553 initially isolated from a chronic venous ulcer) and Escherichia coli (strain 37.4) were routinely grown in Todd-Hewitt (TH) liquid medium in 5% CO2 and at 37° C. The bacterial strains were obtained from Division of Infection Medicine, Department of Clinical Sciences, Lund University, BMC B14, Tornavagen 10, SE-221 84 Lund, Sweden.
(§2) Bacteria were cultivated to mid-log phase (OD620 0.4) in Todd-Hewitt broth, washed, and diluted in incubation buffer (10 mM Tris-Hcl pH 7.4 containing 5 mM glucose). Pseudomonas aeruginosa was grown for 18 hours at 37° C. 50 μl of bacteria (1×10^6 colony forming units (cfu)/mL) were incubated together with various concentrations of peptide or buffer alone for 1 h at 37° C. In order to quantify bactericidal activity, serial dilutions of the incubation mixtures were plated on TH agar. The number of resulting cfu:s were related to bacteria incubated with buffer alone and the results expressed as % killing.
(§3) GCP-2/CXCL6 (SEQ ID NO:3) as well as parts of CXCL6, i.r., SEQ ID NO:1 and 2 being part of CXCL6 was examined for antibacterial activity against a panel of bacteria relevant during infections of dermis and mucosal surfaces. The bacteria included Gram-positive (Group A streptococci, group G streptococci, and S. aureus) and G-negative (E. coli and P. aeruginosa) bacteria (FIG. 1 a). […] To delineate what regions of the GCP-2/CXCL6 molecule that are responsible for antibacterial activity, a 50 amino acid fragment of the NH2-terminal region (GPV-50) of GCP-2/CXCL6 and a 19 amino acid fragment (APF-19) of the COOH-terminal region (a region with a putative amphiphatic alpha-helical structure), was compared with the GCP-2/CXCL6 holopeptide. Antibacterial activity was investigated against S. pyogenes and E. coli.

[2] = system: Streptococcus pyogenes (strain AP1); experiment: Viable count bactericidal assay; type: cell-based; conditions: for antibacterial activity compared with GCP-2/CXCL6 holopeptide: fragment comparison, FIG. 1b
Source text: as §1, §2, §3

[3] = system: bacteria; conditions: literature (Yang et al., 2003; Cole et al., 2001); cited from earlier work
[4] = system: Pseudomonas aeruginosa (strain 1553); experiment: Viable count bactericidal assay; type: cell-based; conditions: 1 h at 37° C., at below micromolar concentrations
Source text: as §1, §2, §3

[5] = system: Staphylococcus aureus (strain 5120); experiment: Viable count bactericidal assay; type: cell-based; conditions: 1 h at 37° C., at below micromolar concentrations
Source text: as §1, §2, §3

[6] = system: Streptococcus Dysgalactiae, sub species equisimilis (strain G41); experiment: Viable count bactericidal assay; type: cell-based; conditions: 1 h at 37° C., at below micromolar concentrations
Source text: as §1, §2, §3

[7] = system: Enterococcus faecalis; experiment: Viable count bactericidal assay against E. faecalis; type: cell-based; conditions: mean, ±SEM
Description: as §2
The anti-bacterial activity of the GCP-2/CXCL6 (SEQ ID NO:3) against the gram-positive, facultatively anaerobic bacteria Enterococcus faecalis was determined using the previously described experimental set-up (See Example 3).

[8] = system: Neisserria gonorrhoea; experiment: Viable count bactericidal assay against N. gonorrhoeae; type: cell-based, Neisseria gonorrhoeae; conditions: mean, ±SEM
Description: as §2
The anti-bacterial activity of the GCP-2/CXCL6 (SEQ ID NO:3) against the gram-negative bacteria Neisserria gonorrhoea was determined using the previously described experimental set-up (See Example 3).

[9] = viable count, 1 h at 37° C., at below micromolar concentrations

Substance: APFLKKVIQKILDSGNKKN (CXCL6 peptide) [APF-19, 19 amino acid fragment of the COOH-terminal region of GCP-2/CXCL6]
- antibacterial activity compared with GCP-2/CXCL6 holopeptide [1]: less antibacterial than the holopeptide
- antibacterial activity compared with GCP-2/CXCL6 holopeptide [2]: less antibacterial than the holopeptide

Substance: CXCL5: related ELR-positive CXC chemokine, closest sequence homology to CXCL6 [reference compound]
- activity against bacteria [3]: no activity against bacteria

Substance: GCP-2/CXCL6: Recombinant human chemokine GCP-2/CXCL6 (SEQ ID NO:3) from PeproTech
- bactericidal effect [1, 9]: bactericidal effect
- bactericidal effect [4]: bactericidal effect
- bactericidal effect [5]: bactericidal effect
- bactericidal effect [6]: bactericidal effect
- bactericidal effect [2, 9]: bactericidal effect
- MBC50 [7]: 0.46 ± 0.03 μM (mean, ±SEM)
- MBC90 [7]: 0.90 ± 0.00 µM
- MBC50 [8]: 0.3 ± 0.1 μM (mean, ±SEM)
- MBC90 [8]: 0.8 ± 0.1 µM
- activity against bacteria [3]: no activity

Substance: GPVSAVLTELRCTCLRVTLRVNPKTIGKLQVFPAGPQCSKVEVVASLKNG (CXCL6 peptide) [GPV-50, 50 amino acid fragment of the NH2-terminal region of GCP-2/CXCL6]
- antibacterial activity compared with GCP-2/CXCL6 holopeptide [1]: higher antibacterial activity than APF-19
- antibacterial activity compared with GCP-2/CXCL6 holopeptide [2]: higher antibacterial activity than APF-19
